What was measured:
Assay in all cases: Cryopreservation success rate after dormancy induction in sugar-supplemented medium
L. sp. Branson = type: in vivo
Experimental: (§1) Lemna minor duckweed plants were cultured on Schenk and Hildebrandt media with 20 mg/ml sucrose at an aerial temperature of between 21° C. and 30° C. and light levels ranging from 200 μM·M^−2·sec^−1 to 450 μM·M^−2·sec^−1 for 1 day up to 1 year. Three frond colonies (each frond colony comprised one or more daughter fronds attached to the mother frond) were aseptically transferred into a 2.0-mL cryovial containing a 900 μL solution of Schenk and Hildebrandt media, […] step. The frond colonies were incubated in this sugar solution for 21-30 days. Each 24-hour photoperiod was comprised of fluctuations in temperature and light levels. Specifically, the daytime hours consisted of culturing the duckweed frond colony at an aerial temperature of 10° C. with a light level of about 25 μM·M^−2·sec^−1 to about 50 μM·M^−2·sec^−1 for a duration of 3 hours, followed by an aerial temperature of 15° C. at a light level of about 25 μM·M^−2·sec^−1 to about 75 μM·M^−2·sec^−1 for a duration of 6 hours, and an aerial temperature of 10° C. with a light level of about 25 μM^−2·sec^−1 to about 50 μM·M^−2·sec^−1 for a duration of 3 hours. During the nighttime hours of the 24-hour photoperiod, the duckweed frond colonies were cultured at an aerial temperature of 4° C. in the absence of light for a duration of 12 hours.
(§2) The duckweed frond colonies were dehydrated in a laminar flow hood in 900 μL of a cryoprotective solution, comprising 1.92 M DMSO, […], 3.26 M glycerol, and 0.4 M sucrose at pH 5.8. The cryovials were incubated in this solution at 4° C. for 30 minutes to 2 hours in the absence of light. Following the incubation, the cryoprotective solution was removed and replaced with 900 μL of fresh cryoprotective solution.
(§3) The duckweed frond colonies were frozen in a slow rate freezer according to the following freezing protocol. The cryovials containing the duckweed frond colonies were held at 4° C. and the temperature was lowered to −4° C. at 1° C. per minute, to −40° C. at 25° C. per minute, and then raised to −12° C. at 10° C. per minute. The temperature was again lowered to −40° C. at 1° C. per minute, to −90° C. at 10° C. per minute, and then lowered to −150° C. at 10° C. per minute. Once frozen, the vials containing the frond colonies were transferred to the vapor phase of liquid nitrogen for storage.
(§4) After up to 17 months in storage, the frozen duckweed frond colonies were thawed and recovered as follows. The vials containing the frozen duckweed frond colonies were transferred from the liquid nitrogen storage tank to a laminar flow hood and were thawed at room temperature for approximately ten minutes. The cryoprotective solution was removed and replaced with 900 μL of Schenk and Hildebrandt medium, supplemented with 1.2 M sucrose, followed by a ten minute incubation at room temperature. The 1.2 M sucrose was subsequently diluted by a series of five dilutions whereby 450 μL of the 1.2 M sucrose solution was removed and replaced with 450 μL of Schenk and Hildebrandt medium supplemented with 20 mg/ml sucrose. Following the serial dilutions, the frond colonies were transferred to a petri dish with Schenk and Hildebrandt medium, supplemented with 10 mg/ml sucrose and 1% (weight/volume) agar. The duckweed frond colonies were cultured at an aerial temperature of between 21° C. and 30° C. with light levels ranging from about 20 μM·M^−2·sec^−1 to about 100 μM·M^−2·sec^−1 for 7-14 days prior to calculating the success rate of the cryopreservation procedure.
(§5) The cryopreservation success rate was calculated by the total number of visible daughter fronds (or daughter fronds with viable tissue) to survive the freezing process and successfully reproduce new daughter fronds as a percentage of the total number of visible daughter fronds that were frozen. Viability of tissue or of daughter fronds was assessed by the presence of green tissue and the ability of these fronds or frond tissues to reproduce and generate new daughter fronds. […]

Sp. polyrrhiza = type: in vivo, Spirodela polyrrhiza; details: single sugars 90 mg/ml unless the label says 20 mg/ml, six sugar combo 15 mg/ml each
L. minor = type: in vivo, Lemna minor
IFN61-B2-101 line = type: in vivo, Lemna minor
Experimental: as §1, §2, §3, §4, §5

[1] = second set of experiments, single sugars 90 mg/ml unless the label says 20 mg/ml, six sugar combo 15 mg/ml each, listed as 20 mg/ml Sucrose
[2] = sugars at two concentrations: 90 mg/ml (1X) and 270 mg/ml (3X), listed as Sucrose 1X
[3] = sugars at two concentrations: 90 mg/ml (1X) and 270 mg/ml (3X), listed as Sucrose 3X
[4] = various concentrations of six sugar combination: total sugar 90 (1X), 216 (2.4X), 342 mg/ml (3.8X), or 20 mg/ml sucrose

For `OC[C@H]1O[C@@](CO)(O[C@H]2O[C@H](CO)[C@@H](O)[C@H](O)[C@H]2O)[C@@H](O)[C@@H]1O` [Sucrose, sucrose], the Cryopreservation success rate (L. sp. Branson; first set of experiments, single sugars 90 mg/ml unless the label says 20 mg/ml, six sugar combo 15 mg/ml each, in Schenk and Hildebrandt media during dormancy induction) was 100% (23/23), the Cryopreservation success rate (L. sp. Branson; first set of experiments, single sugars 90 mg/ml unless the label says 20 mg/ml, six sugar combo 15 mg/ml each, in Schenk and Hildebrandt media during dormancy induction, listed as 20 mg/ml Sucrose) was 96% (24/25) and the Cryopreservation success rate (L. sp. Branson; second set of experiments, single sugars 90 mg/ml unless the label says 20 mg/ml, six sugar combo 15 mg/ml each) was 87.5% (14/16). The Cryopreservation success rate (L. sp. Branson; [1]) was 88.2% (15/17), the Cryopreservation success rate (L. sp. Branson; [2]) was 100% (19/19) and the Cryopreservation success rate (L. sp. Branson; [3]) was 0% (0/14). The Cryopreservation success rate (L. sp. Branson; [4]) was 100% (24/24), the Cryopreservation success rate (Sp. polyrrhiza; first set of experiments) was 0% (0/10) and the Cryopreservation success rate (Sp. polyrrhiza; first set of experiments, listed as 20 mg/ml Sucrose) was 0% (0/14). The Cryopreservation success rate (Sp. polyrrhiza; second set of experiments) was 0% (0/12), the Cryopreservation success rate (L. minor; dormancy induction 7-Day, 4° C. with no light) was 0% (0/28) and the Cryopreservation success rate (L. minor; dormancy induction 7-Day, 9-10° C. with no light) was 14.82% (4/27). For the same compound, the Cryopreservation success rate (L. minor; dormancy induction 7-Day, fluctuating temperature and light) was 33.3% (9/27), the Cryopreservation success rate (L. minor; dormancy induction 7-Day, fluctuating temperature with no light) was 65.39% (17/26) and the Cryopreservation success rate (L. minor; dormancy induction 14-Day, 4° C. with no light) was 0% (0/22). The Cryopreservation success rate (L. minor; dormancy induction 14-Day, 9-10° C. with no light) was 73.08% (19/26), the Cryopreservation success rate (L. minor; dormancy induction 14-Day, fluctuating temperature and light) was 96% (24/25) and the Cryopreservation success rate (L. minor; dormancy induction 14-Day, fluctuating temperature with no light) was 100% (24/24). For the same compound, the Cryopreservation success rate (L. minor; dormancy induction 21-Day, 4° C. with no light) was 4.17% (1/24), the Cryopreservation success rate (L. minor; dormancy induction 21-Day, 9-10° C. with no light) was 91.67% (22/24) and the Cryopreservation success rate (L. minor; dormancy induction 21-Day, fluctuating temperature with no light) was 86.96% (20/23). For the same compound, the Cryopreservation success rate (L. minor; dormancy induction 28-Day, 4° C. with no light) was 0% (0/20), the Cryopreservation success rate (L. minor; dormancy induction 28-Day, 9-10° C. with no light) was 97.37% (37/38) and the Cryopreservation success rate (L. minor; dormancy induction 28-Day, fluctuating temperature and light) was 94.29% (33/35). The Cryopreservation success rate (L. minor; dormancy induction 28-Day, fluctuating temperature with no light) was 100% (30/30), the Cryopreservation success rate (L. minor; first set of experiments, single sugars 90 mg/ml unless the label says 20 mg/ml, six sugar combo 15 mg/ml each, listed as 20 mg/ml Sucrose) was 42.3% (11/26) and the Cryopreservation success rate (L. minor; [1]) was 43.8% (7/16). The Cryopreservation success rate (L. minor; [2]) was 88.9% (16/18), the Cryopreservation success rate (L. minor; [3]) was 0% (0/11) and the Cryopreservation success rate (L. minor; [4]) was 92.9% (26/28). It also gave a Cryopreservation success rate (IFN61-B2-101 line; [2]) of 89.5%, a Cryopreservation success rate (IFN61-B2-101 line; [3]) of 0% and a Cryopreservation success rate (IFN61-B2-101 line; [4]) of 100%.

Source: patent publication US20120190004A1, “METHODS AND COMPOSITIONS FOR THE CRYOPRESERVATION OF DUCKWEED” (Biolex Therapeutics, Inc., priority 2009, published 2012)
